Reference: article PMC4574608, “Genomic profiling of a Hepatocyte growth factor-dependent signature for MET-targeted therapy in glioblastoma” (Journal of Translational Medicine, 2015)
“Also recorded” adds a separate entry of the source.

Experiments:
[1] = test system: U87MG cells; experiment: 3D cell invasion assay (spheroid dispersal on Matrigel); format: cell-based, human; details: at 50 μM, day 3
Description: U87MG cells were first grown in 1 % soft agar (Sigma) for 7 days to form spheroids. Each spheroid was then selected and placed onto Matrigel in a well to attach overnight (day 0), followed by treatment with DMSO or serially diluted compounds. Images were taken after an additional 3 days under a light microscope. Triplicates were tested for each concentration.

[2] = test system: G116 PDX model; experiment: GBM PDX therapeutic efficacy; format: in vivo, mouse; details: G116, highest HGF expression, single agent
Description: (§1) All animal studies were approved by the IACUC of Van Andel Research Institute. Subcutaneous and orthotopic tumor initiation were performed as previously described. The orthotopic tumor growth was measured by bioluminescence signal intensity (BLI) using a small animal optical imager AMI 1000 (Spectral Instruments Imaging, LLC). Dosing with V-4084 and/or erlotinib was delivered once daily by oral gavage for 3 weeks. Vehicles used were 0.5 % MC 400 with 0.05 % Tween 80 (for V-4084) and with 0.5 % (w/v) methyl cellulose (for erlotinib). To determine the effectiveness of treatment, the average tumor size of each group from the last measurement was analyzed with Student’s t test (p < 0.05).

[3] = test system: G91 PDX model; experiment: GBM PDX therapeutic efficacy; format: in vivo, mouse; details: G91, no HGF expression, single agent
Description: as §1

[4] = test system: KCI-10-40X1 tumors; experiment: EGFRamp PDX therapeutic efficacy; format: in vivo, mouse
Description: as §1
(§2) To induce acquired resistance, KCI-10-40X1cells were inoculated into nude mice subcutaneously followed by continuous erlotinib treatment (75–100 mg/kg). […] The same transplant procedure was serially repeated four times to establish the tumor model adaptive to erlotinib treatment (KCI-10-40X1/erl). […] A combination of V-4084 and erlotinib, however, retarded KCI-10-40X1/erl tumor growth (Fig. 5E).

[5] = test system: KCI-10-40X1/erl tumors; experiment: Erlotinib-resistant EGFRamp PDX therapeutic efficacy; format: in vivo, mouse; details: continued erlotinib treatment, discontinuing accelerated growth
Description: as §1, §2

Compound	U87MG cell dispersal (anti-migratory activity) [1]	PDX tumor response to treatment [2]	PDX tumor response to treatment [3]	Time of continuous treatment until tumors regrow (start of acquired resistance) ([4]; KCI-10-40X1, continuous erlotinib 75–100 mg/kg)	Tumor response to treatment ([4]; KCI-10-40X1 subcutaneous in nude mice, erlotinib 75 mg/kg, first week)	Tumor growth [5]
Cn1nnc2c(C(N)=O)ncn2c1=O [TMZ, Temozolomide]	failed to show any anti-migratory activity	–	–	–	–	–
C#Cc1cccc(Nc2ncnc3cc(OCCOC)c(OCCOC)cc23)c1 [erlotinib]	–	no effect	exactly the opposite	5 weeks	high sensitivity; also recorded: significant tumor regression	grow while on erlotinib treatment
